This passage reports Activity results from ChEMBL document CHEMBL1142599, “Biocatalytic and antimetastatic studies of the marine cembranoids sarcophine and 2-epi-16-deoxysarcophine” (J Nat Prod, 2006).

The species entered for the test is Mus musculus. Description: Inhibition of mouse B16B15b cell migration after 16 hrs by wound-healing assay. In kind it is functional.
For the compound `CC1=C2CC/C(C)=C/CC[C@]3(C)O[C@H]3CC/C(C)=C/[C@H]2OC1`, the Activity result is “Dose-dependent effect”.
The entry for `C/C1=C\[C@H]2OC[C@@]3(C)O[C@@]23CC/C(C)=C/CC[C@]2(C)O[C@H]2CC1` is “Dose-dependent effect”; for `CC1=C2CC/C(C)=C/[C@@H](O)C[C@]3(C)O[C@H]3CC/C(C)=C/[C@H]2OC1` it is “Dose-dependent effect”; for `CC1=C2CC/C(C)=C/C[C@H](O)[C@]3(C)O[C@H]3CC/C(C)=C/[C@H]2OC1` it is “Dose-dependent effect”.
`CC1=C2CC/C(C)=C/CC[C@]3(C)O[C@H]3CC/C(C)=C/[C@@H]2OC1=O`: the Activity entry was “Dose-dependent effect”.
For the compound `CC1=C2[C@@H](O)C/C(C)=C/CC[C@]3(C)O[C@H]3CC/C(C)=C/[C@H]2OC1`, the Activity entry is “Dose-dependent effect”.
With `CC1=C2CC/C(C)=C/C[C@H](O)[C@]3(C)O[C@H]3CC/C(C)=C/[C@@H]2OC1=O`, the Activity result is “Dose-dependent effect”.
